Experimental data: US20230203043A1, “NOVEL IMIDAZOPYRAZINE DERIVATIVES” (Hoffmann-La Roche Inc., priority 2020, published 2023)
Counter-ions that a name gives are not always drawn. Like-named read-outs stand apart in the source and are kept apart here.

Test system: Acinetobacter baumannii ATCC17961
Assay: Antimicrobial susceptibility testing: 90% growth inhibitory concentration (IC90) determination in Iso-Sensitest broth, OD600 growth
Type: cell-based
Details: Acinetobacter baumannii, ATCC17961, 16 h
Method in brief: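 Growth monitored at 600 nm every 20 min for 16 h at 35±2 °C, inoculum ~5×10^(5) CFU/ml in Iso-Sensitest medium. Compounds in 10-point twofold series, e.g. 50 to 0.097 μM final; 90% inhibitory concentration taken from log-phase growth.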

[1] = read-out: A. baumannii ATCC 17961 IC90 (uM), strain ATCC 17961, OD600 growth over 16 h
[2] = strain ATCC 17961, OD600 growth over 16 h, read-out: A. baumannii ATCC 17961 IC90

| IC90 [2] [µM] | SMILES | IC90 [1] [µM] |
| --- | --- | --- |
| – | Cc1cc(Nc2nccn3c(-c4cn(CC#N)nc4C(F)(F)F)cnc23)ccc1C(=O)N1CCN(C(=O)[C@@H]2CCNC[C@@H]2O)CC1 [Example 421, formic acid; 2-[4-[8-[4-[4-[(3R,4R)-3-hydroxypiperidine-4-carbonyl]piperazine-1-carbonyl]-3-methylanilino]imidazo[1,2-a]pyrazin-3-yl]-3-(trifluoromethyl)pyrazol-1-yl]acetonitrile] | 0.629 |
| – | CCc1cc(Nc2nccn3c(-c4cn(CC#N)nc4-c4ccccc4)cnc23)ccc1C(=O)NCCOCCN [Example 781, N-[2-(2-aminoethoxy)ethyl]-4-[[3-[1-(cyanomethyl)-3-phenyl-pyrazol-4-yl]imidazo[1,2-a]pyrazin-8-yl]amino]-2-ethyl-benzamide formate] | 1.09 |
| 0.674 | C=CCNCCCNC(=O)c1ccc(Nc2nccn3c(-c4c[nH]nc4C(F)(F)F)cnc23)cc1CC [Example 196, 2-ethyl-N-[3-(prop-2-enylamino)propyl]-4-[[3-[3-(trifluoromethyl)-1H-pyrazol-4-yl]imidazo[1,2-a]pyrazin-8-yl]amino]benzamide] | – |
| 0.25 | N#CCn1cc(-c2cnc3c(Nc4ccc(C(=O)NCCOCCN)c(F)c4)nccn23)c(C(F)(F)F)n1 [Example 810, N-(2-(2-aminoethoxy)ethyl)-4-((3-(1-(cyanomethyl)-3-(trifluoromethyl)-1H-pyrazol-4-yl)imrdazo[1,2-a]pyrazin-8-yl)amino)-2-fluorobenzamide hydrochloride] | – |
| – | C[C@@H](NC(=O)c1ccc(Nc2nccn3c(-c4cn(CC#N)nc4C(F)(F)F)cnc23)cc1Cl)C(=O)NC1CC(N)C1 (stereo partly drawn) [Example 683, N-[(1R)-2-[(3-aminocyclobutyl)amino]-1-methyl-2-oxo-ethyl]-2-chloro-4-[[3-[1-(cyanomethyl)-3-(trifluoromethyl)pyrazol-4-yl]imidazo[1,2-a]pyrazin-8-yl]amino]benzamide formate] | 0.336 |
| – | CCc1cc(Nc2nccn3c(-c4c[nH]nc4C(F)(F)F)cnc23)ccc1C(=O)NCCCNC(=O)[C@@H]1CC[C@H](N)C1 [Example 534, N-(3-((1R,3S)-3-aminocyclopentane-1-carboxamido)propyl)-2-ethyl-4-((3-(3-(trifluoromethyl)-1H-pyrazol-4-yl)imidazo[1,2-a]pyrazin-8-yl)amino)benzamide formate] | 0.251 |
| 0.382 | Cc1cc(Nc2nccn3c(-c4cn(CC(F)F)nc4C(F)(F)F)cnc23)cc(F)c1C(=O)N1CCN(C(=O)[C@H]2C[C@@H](N)C2)CC1 [Example 701, (4-((1s,3s)-3-aminocyclobutane-1-carbonyl)piperazin-1-yl)(4-((3-(1-(2,2-difluoroethyl)-3-(trifluoromethyl)-1H-pyrazol-4-yl)imidazo[1,2-a]pyrazin-8-yl)amino)-2-fluoro-6-methylphenyl)methanone] | – |
| 0.928 | Cc1cc(Nc2nccn3c(-c4cn(CC#N)nc4C(F)(F)F)cnc23)cc(F)c1C(=O)N[C@H](C)CNC(=O)[C@@H]1C[C@@H](O)CN1 [Example 769, (2S,4R)-N-((R)-2-(4-(3-(1-(cyanomethyl)-3-(trifluoromethyl)-1H-pyrazol-4-yl)imidazo[1,2-a]pyrazin-8-yl)amino)-2-fluoro-6-methylbenzamido)propyl)-4-hydroxypyrrolidine-2-carboxamide formate] | – |
| – | CCc1cc(Nc2nccn3c(-c4c[nH]nc4C(F)(F)F)cnc23)ccc1C(=O)NCCNC(=O)NCCCN [Example 569, N-(2-(3-(3-aminopropyl)ureido)ethyl)-2-ethyl-4-((3-(3-(trifluoromethyl)-1H-pyrazol-4-yl)imidazo[1,2-a]pyrazin-8-yl)amino)benzamide formate] | 0.364 |
| – | C[C@@H](NC(=O)c1ccc(Nc2nccn3c(-c4c[nH]nc4C(F)(F)F)cnc23)cc1Cl)C(=O)N1CCC(N)CC1 [Example 90, N-[(2R)-1-(4-aminopiperidin-1-yl)-1-oxopropan-2-yl]-2-chloro-4-[[3-[3-(trifluoromethyl)-1H-pyrazol-4-yl]imidazo[1,2-a]pyrazin-8-yl]amino]benzamide formate] | 0.643 |
| 0.169 | C[C@H](N)C(=O)N1CCN(C(=O)c2ccc(Nc3nccn4c(-c5c[nH]nc5C(F)(F)F)cnc34)cc2Cl)CC1 [Example 206, (2S)-2-amino-1-[4-[2-chloro-4-[[3-[3-(trifluoromethyl)-1H-pyrazol-4-yl]imidazo[1,2-a]pyrazin-8-yl]amino]benzoyl]piperazin-1-yl]propan-1-one] | – |
| 1.95 | C#CCNC(=O)c1c(C)cc(Nc2nccn3c(-c4c[nH]nc4C(F)(F)F)cnc23)cc1F [Example 43, 2-fluoro-6-methyl-N-prop-2-ynyl-4-[[3-[3-(trifluoromethyl)-1H-pyrazol-4-yl]imidazo[1,2-a]pyrazin-8-yl]amino]benzamide] | – |
| – | O=C(N[C@H]1CCNC1)N1CCN(C(=O)c2ccc(Nc3nccn4c(-c5c[nH]nc5C(F)(F)F)cnc34)cc2Cl)CC1 [Example 389, 4-[2-chloro-4-[[3-[3-(trifluoromethyl)-1H-pyrazol-4-yl]imidazo[1,2-a]pyrazin-8-yl]amino]benzoyl]-N-[(3S)-pyrrolidin-3-yl]piperazine-1-carboxamide formate] | 0.136 |
| 3 | CCc1cc(Nc2nccn3c(-c4cn(COC)nc4C(F)F)cnc23)ccc1C(=O)N1CCNCC1 [Example 801, (4-((3-(3-(difluoromethyl)-1-(methoxymethyl)-1H-pyrazol-4-yl)imidazo[1,2-a]pyrazin-8-yl)amino)-2-ethylphenyl) (piperazin-1-yl)methanone] | – |
| 0.901 | C[C@H]1CN(C(=O)c2ccc(Nc3nccn4c(-c5c[nH]nc5C(F)(F)F)cnc34)cc2Cl)CCN1 [Example 321, [2-chloro-4-[[3-[3-(trifluoromethyl)-1H-pyrazol-4-yl]imidazo[1,2-a]pyrazin-8-yl]amino]phenyl]-[(3S)-3-methylpiperazin-1-yl]methanone] | – |
| – | O=C(NCCNC(=O)[C@@H]1C[C@@H](O)CN1)c1ccc(Nc2nccn3c(-c4c[nH]nc4C(F)(F)F)cnc23)cc1Cl [Example 433, (2S,4R)-N-[2-[[2-chloro-4-[[3-[3-(trifluoromethyl)-1H-pyrazol-4-yl]imidazo[1,2-a]pyrazin-8-yl]amino]benzoyl]amino]ethyl]-4-hydroxypyrrolidine-2-carboxamide formate] | 2.66 |
| – | N#CCn1cc(-c2cnc3c(Nc4ccc(C(=O)N5CCN(C(=O)N[C@H]6CCNC6)CC5)c(Cl)c4)nccn23)c(C(F)(F)F)n1 [Example 297, 4-[2-chloro-4-[[3-[1-(cyanomethyl)-3-(trifluoromethyl)pyrazol-4-yl]imidazo[1,2-a]pyrazin-8-yl]amino]benzoyl]-N-[(3S)-pyrrolidin-3-yl]piperazine-1-carboxamide formate] | 0.31 |
| 0.148 | CCc1cc(Nc2nccn3c(-c4cn(CCOC(F)(F)F)nc4C(F)(F)F)cnc23)ccc1C(=O)NCCOCCN [Example 622, N-(2-(2-aminoethoxy)ethyl)-2-ethyl-4-((3-(1-(2-(trifluoromethoxy)ethyl)-3-(trifluoromethyl)-1H-pyrazol-4-yl)imidazo[1,2-a]pyrazin-8-yl)amino)benzamide] | – |
| 2.02 | C[C@H]1CNCCN1C(=O)c1ccc(Nc2nccn3c(-c4c[nH]nc4C(F)(F)F)cnc23)cc1Cl [Example 325, [2-chloro-4-[[3-[3-(trifluoromethyl)-1H-pyrazol-4-yl]imidazo[1,2-a]pyrazin-8-yl]amino]phenyl]-[(2S)-2-methylpiperazin-1-yl]methanone] | – |
